Key:
[1] = tested on: CCRF-CEM; assay: NCI 60-cell drug screen, Leukemia CCRF-CEM; type: cell-based, human; conditions: 1.00E−5 Molar
[2] = tested on: MOLT-4; assay: NCI 60-cell drug screen, Leukemia MOLT-4; type: cell-based, human; conditions: 1.00E−5 Molar
[3] = tested on: RPMI-8226; assay: NCI 60-cell drug screen, Leukemia RPMI-8226; type: cell-based, human; conditions: 1.00E−5 Molar
[4] = tested on: SR; assay: NCI 60-cell drug screen, Leukemia SR; type: cell-based, human; conditions: 1.00E−5 Molar
[5] = tested on: A549/ATCC; assay: NCI 60-cell drug screen, Non-Small Cell Lung Cancer A549/ATCC; type: cell-based, human; conditions: 1.00E−5 Molar
[6] = tested on: HOP-92; assay: NCI 60-cell drug screen, Non-Small Cell Lung Cancer HOP-92; type: cell-based, human; conditions: 1.00E−5 Molar
[7] = tested on: NCI-H226; assay: NCI 60-cell drug screen, Non-Small Cell Lung Cancer NCI-H226; type: cell-based, human; conditions: 1.00E−5 Molar
[8] = tested on: NCI-H23; assay: NCI 60-cell drug screen, Non-Small Cell Lung Cancer NCI-H23; type: cell-based, human; conditions: 1.00E−5 Molar
[9] = tested on: NCI-H522; assay: NCI 60-cell drug screen, Non-Small Cell Lung Cancer NCI-H522; type: cell-based, human; conditions: 1.00E−5 Molar
[10] = tested on: HCC-2998; assay: NCI 60-cell drug screen, Colon Cancer HCC-2998; type: cell-based, human; conditions: 1.00E−5 Molar
[11] = tested on: HCT-15; assay: NCI 60-cell drug screen, Colon Cancer HCT-15; type: cell-based, human; conditions: 1.00E−5 Molar
[12] = tested on: KM12; assay: NCI 60-cell drug screen, Colon Cancer KM12; type: cell-based, human; conditions: 1.00E−5 Molar
[13] = tested on: SF-295; assay: NCI 60-cell drug screen, CNS Cancer SF-295; type: cell-based, human; conditions: 1.00E−5 Molar
[14] = tested on: SF-539; assay: NCI 60-cell drug screen, CNS Cancer SF-539; type: cell-based, human; conditions: 1.00E−5 Molar
[15] = tested on: SNB-19; assay: NCI 60-cell drug screen, CNS Cancer SNB-19; type: cell-based, human; conditions: 1.00E−5 Molar
[16] = tested on: U251; assay: NCI 60-cell drug screen, CNS Cancer U251; type: cell-based, human; conditions: 1.00E−5 Molar
[17] = tested on: LOX IMVI; assay: NCI 60-cell drug screen, Melanoma LOX IMVI; type: cell-based, human; conditions: 1.00E−5 Molar
[18] = tested on: M14; assay: NCI 60-cell drug screen, Melanoma M14; type: cell-based, human; conditions: 1.00E−5 Molar
[19] = tested on: MDA-MB-435; assay: NCI 60-cell drug screen, Melanoma MDA-MB-435; type: cell-based, human; conditions: 1.00E−5 Molar
[20] = tested on: SK-MEL-2; assay: NCI 60-cell drug screen, Melanoma SK-MEL-2; type: cell-based, human; conditions: 1.00E−5 Molar
[21] = tested on: SK-MEL-28; assay: NCI 60-cell drug screen, Melanoma SK-MEL-28; type: cell-based, human; conditions: 1.00E−5 Molar
[22] = tested on: SK-MEL-5; assay: NCI 60-cell drug screen, Melanoma SK-MEL-5; type: cell-based, human; conditions: 1.00E−5 Molar
[23] = tested on: UACC-257; assay: NCI 60-cell drug screen, Melanoma UACC-257; type: cell-based, human; conditions: 1.00E−5 Molar
[24] = tested on: UACC-62; assay: NCI 60-cell drug screen, Melanoma UACC-62; type: cell-based, human; conditions: 1.00E−5 Molar
[25] = tested on: IGROV1; assay: NCI 60-cell drug screen, Ovarian Cancer IGROV1; type: cell-based, human; conditions: 1.00E−5 Molar
[26] = tested on: OVCAR-4; assay: NCI 60-cell drug screen, Ovarian Cancer OVCAR-4; type: cell-based, human; conditions: 1.00E−5 Molar
[27] = tested on: NCI/ADR-RES; assay: NCI 60-cell drug screen, Ovarian Cancer NCI/ADR-RES; type: cell-based, human; conditions: 1.00E−5 Molar
Method: In brief, cellular protein levels were determined after 48 hours of drug exposure by sulforhodamine B colorimetry. Through the use of a time 0 cell control, the cell growth can be determined for each cell line thus allowing calculations of the 50% growth inhibitory concentration (GI50), the total growth inhibition (TGI), and the 50% lethal concentration (LC50). Comparison to plates not exposed to drug permits determination of concentration and times of exposure conferring 50% net growth inhibition (GI50), TGI, and 50% cell kill (LC50).
From the data analysis it follows that approximately 95% of the actives (potent anticancer drugs) from the 60 cell line screen can be identified. By these criteria, 6 compounds (each with its certification number, refer to Table 2) of the invention were reported that having anticancer activity.
The screening system in United State National Cancer Institute (NCI) consists of 60 kinds of different human cancer cells, which can be used to assay the growth-inhibiting ability or cell toxicity of a compound against various cancer and tumor at a certain concentration.
NCI had selected 6 compounds f1-0, f1-1, f3-1, f1-11, f1-2 and f1-15 as test compounds (Table 2). Among these compounds, compound f1-1 was effective against renal cancer cell strain CAKI-1, and could achieve an inhibition effect on the growth of said cancer cell up to −8.01. Compound f1-11 could achieve inhibiting effects against leukemia cell line CCRF-CEM and RPMI-8226, up to −15.39 and −60.17, respectively. Compound f1-2 was effective against central nervous system cancer cell line SNB-75, and could achieve an effect of inhibiting said cancer cell growth up to −9.55. Compound f1-15 was effective against leukemia (blood cancer) cell line K-562, MOLT-4, and RPMI-8226, and could achieve effects of inhibiting said cancer cells growth up to −31.59, −2.90 and −13.69, respectively. Further, compound f1-15 was effective also against renal cancer cell line CAKI-1, and could achieve an effect of inhibiting said cancer cell growth up to −14.89.

[28] = tested on: 786-0; assay: NCI 60-cell drug screen, Renal Cancer 786-0; type: cell-based, human; conditions: 1.00E−5 Molar
[29] = tested on: ACHN; assay: NCI 60-cell drug screen, Renal Cancer ACHN; type: cell-based, human; conditions: 1.00E−5 Molar
[30] = tested on: RXF 393; assay: NCI 60-cell drug screen, Renal Cancer RXF 393; type: cell-based, human; conditions: 1.00E−5 Molar
[31] = tested on: SN12C; assay: NCI 60-cell drug screen, Renal Cancer SN12C; type: cell-based, human; conditions: 1.00E−5 Molar
[32] = tested on: UO-31; assay: NCI 60-cell drug screen, Renal Cancer UO-31; type: cell-based, human; conditions: 1.00E−5 Molar
[33] = tested on: DU-145; assay: NCI 60-cell drug screen, Prostate Cancer DU-145; type: cell-based, human; conditions: 1.00E−5 Molar
[34] = tested on: MCF7; assay: NCI 60-cell drug screen, Breast Cancer MCF7; type: cell-based, human; conditions: 1.00E−5 Molar
[35] = tested on: MDA-MB-231/ATCC; assay: NCI 60-cell drug screen, Breast Cancer MDA-MB-231/ATCC; type: cell-based, human; conditions: 1.00E−5 Molar
[36] = tested on: BT-549; assay: NCI 60-cell drug screen, Breast Cancer BT-549; type: cell-based, human; conditions: 1.00E−5 Molar
[37] = tested on: T-47D; assay: NCI 60-cell drug screen, Breast Cancer T-47D; type: cell-based, human; conditions: 1.00E−5 Molar
[38] = tested on: GBM8401; assay: MTT assay, GBM8401 tumor cell; conditions: concentration 10 μM, tumor cell
[39] = tested on: GBM8901; assay: MTT assay, GBM8901 tumor cell; conditions: concentration 10 μM, tumor cell

SMILES	Growth Percent, CCRF-CEM [1] [%]	Growth Percent, MOLT-4 [2] [%]	Growth Percent, RPMI-8226 [3] [%]	Growth Percent, SR [4] [%]	Growth Percent, A549/ATCC [5] [%]	Growth Percent, HOP-92 [6] [%]	Growth Percent, NCI-H226 [7] [%]	Growth Percent, NCI-H23 [8] [%]	Growth Percent, NCI-H522 [9] [%]	Growth Percent, HCC-2998 [10] [%]	Growth Percent, HCT-15 [11] [%]	Growth Percent, KM12 [12] [%]	Growth Percent, SF-295 [13] [%]	Growth Percent, SF-539 [14] [%]	Growth Percent, SNB-19 [15] [%]	Growth Percent, U251 [16] [%]	Growth Percent, LOX IMVI [17] [%]	Growth Percent, M14 [18] [%]	Growth Percent, MDA-MB-435 [19] [%]	Growth Percent, SK-MEL-2 [20] [%]	other results
CCCSc1nc2ccc3c(c2[nH]1)C(=O)c1ccccc1C3=O [f1-2, 2-(propylthio)-1H-anthra[1,2-d]imidazole-6,11-dione]	70.83	68.13	71.75	71.03	59.15	17.25	50.24	69.80	72.38	81.92	67.65	55.17	37.25	23.99	82.03	62.95	62.57	89.99	77.38	79.33	Growth Percent, SK-MEL-28 [21]: 92.59%; Growth Percent, SK-MEL-5 [22]: 78.52%; Growth Percent, UACC-257 [23]: 86.31%; Growth Percent, UACC-62 [24]: 51.07%; Growth Percent, IGROV1 [25]: 53.72%; Growth Percent, OVCAR-4 [26]: 42.16%; Growth Percent, NCI/ADR-RES [27]: 50.22%; Growth Percent, 786-0 [28]: 21.82%; Growth Percent, ACHN [29]: 27.16%; Growth Percent, RXF 393 [30]: 20.07%; Growth Percent, SN12C [31]: 80.41%; Growth Percent, UO-31 [32]: 24.49%; Growth Percent, DU-145 [33]: 69.29%; Growth Percent, MCF7 [34]: 58.97%; Growth Percent, MDA-MB-231/ATCC [35]: 26.44%; Growth Percent, BT-549 [36]: 76.00%; Growth Percent, T-47D [37]: 53.72%; Cell survival rate (%) GBM8401 [38]: 62 ± 18%; Cell survival rate (%) GBM8901 [39]: 62 ± 7%
CN(C)CCCSc1nc2ccc3c(c2[nH]1)C(=O)c1ccccc1C3=O [f1-15, 2-(3-(dimethylamino)propylthio)-1H-anthra[1,2-d]imidazole-6,11-dione]	8.49	−2.90	−13.69	3.09	51.59	15.99	74.10	53.83	69.28	72.67	36.27	20.36	76.03	57.50	79.67	74.11	28.57	77.32	72.18	80.03	Growth Percent, SK-MEL-28 [21]: 102.07%; Growth Percent, SK-MEL-5 [22]: 62.55%; Growth Percent, UACC-257 [23]: 114.50%; Growth Percent, UACC-62 [24]: 75.39%; Growth Percent, IGROV1 [25]: 30.89%; Growth Percent, OVCAR-4 [26]: 29.72%; Growth Percent, NCI/ADR-RES [27]: 54.32%; Growth Percent, 786-0 [28]: 77.63%; Growth Percent, ACHN [29]: 24.30%; Growth Percent, RXF 393 [30]: 38.40%; Growth Percent, SN12C [31]: 37.66%; Growth Percent, UO-31 [32]: 25.50%; Growth Percent, DU-145 [33]: 36.35%; Growth Percent, MCF7 [34]: 16.92%; Growth Percent, MDA-MB-231/ATCC [35]: 56.24%; Growth Percent, BT-549 [36]: 75.75%; Growth Percent, T-47D [37]: 45.78%; Cell survival rate (%) GBM8401 [38]: 8 ± 11%; Cell survival rate (%) GBM8901 [39]: 63 ± 4%
O=C1c2ccccc2C(=O)c2c1ccc1nc(SCCN3CCCC3)[nH]c21 [f1-11]	−15.39	30.94	−60.17	20.25	35.52	35.17	88.06	66.93	81.51	71.50	40.36	19.62	76.91	62.25	60.47	69.07	11.89	70.87	66.47	106.62	Growth Percent, SK-MEL-28 [21]: 100.23%; Growth Percent, SK-MEL-5 [22]: 78.52%; Growth Percent, UACC-257 [23]: 92.77%; Growth Percent, UACC-62 [24]: 80.95%; Growth Percent, IGROV1 [25]: 23.20%; Growth Percent, OVCAR-4 [26]: 57.23%; Growth Percent, NCI/ADR-RES [27]: 53.74%; Growth Percent, 786-0 [28]: 77.12%; Growth Percent, ACHN [29]: 34.58%; Growth Percent, RXF 393 [30]: 22.62%; Growth Percent, SN12C [31]: 52.94%; Growth Percent, UO-31 [32]: 21.22%; Growth Percent, DU-145 [33]: 17.91%; Growth Percent, MCF7 [34]: 30.88%; Growth Percent, MDA-MB-231/ATCC [35]: 63.52%; Growth Percent, BT-549 [36]: 78.62%; Growth Percent, T-47D [37]: 83.06%; Cell survival rate (%) GBM8401 [38]: 78 ± 10%; Cell survival rate (%) GBM8901 [39]: 18 ± 2%

Source: patent US8067454B2, “Thio-substituted Anthra [1, 2-d] imidazole- 6, 11-dione derivatives, preparation method and application thereof” (National Defense Medical Center, priority 2010, dated 2011)
